Laboratory results published in ChEMBL document CHEMBL1201862, “PubChem BioAssay data set” (2004).
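Test compounds were applied to cells in 96-well plates for 48 hours at 5 doses. Here, GI50 denotes the concentration required for 50% inhibition of growth.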 Active and inactive are the calls of the source. Rule as the data show it: active = GI50 up to about 1.1 µM and inactive = higher.

Tests used:
Assay in all cases: NCI tumour cell line growth inhibition, 48 h
786-0 = system: 786-0
A498 = system: A498
A549 = system: A549
ACHN = system: ACHN
BT-549 = system: BT-549
CAKI-1 = system: CAKI-1
CCRF-CEM = system: CCRF-CEM
COLO 205 = system: COLO 205
DU-145 = system: DU-145
EKVX = system: EKVX
HCT-116 = system: HCT-116
HCT-15 = system: HCT-15
HL-60 = system: HL-60
HOP-62 = system: HOP-62
HOP-92 = system: HOP-92
HT-29 = system: HT-29
Hs-578T = system: Hs-578T
IGROV-1 = system: IGROV-1
K562 = system: K562
KM12 = system: KM12
LOX IMVI = system: LOX IMVI
M14 = system: M14
MCF7 = system: MCF7
MDA-MB-231 = system: MDA-MB-231
MDA-MB-435 = system: MDA-MB-435
MDA-N = system: MDA-N
MOLT-4 = system: MOLT-4
Malme-3M = system: Malme-3M
NCI-H23 = system: NCI-H23
NCI-H460 = system: NCI-H460
NCI-H522 = system: NCI-H522
NCI/ADR-RES = system: NCI/ADR-RES
OVCAR-3 = system: OVCAR-3
OVCAR-5 = system: OVCAR-5
OVCAR-8 = system: OVCAR-8
PC-3 = system: PC-3
RPMI-8226 = system: RPMI-8226
RXF 393 = system: RXF 393
SF-268 = system: SF-268
SF-295 = system: SF-295
SF-539 = system: SF-539
SK-MEL-28 = system: SK-MEL-28
SK-MEL-2 = system: SK-MEL-2
SK-MEL-5 = system: SK-MEL-5
SK-OV-3 = system: SK-OV-3
SN12C = system: SN12C
SNB-19 = system: SNB-19
SNB-75 = system: SNB-75
SR = system: SR
SW-620 = system: SW-620
T47D = system: T47D
TK-10 = system: TK-10
U-251 = system: U-251
UACC-257 = system: UACC-257
UACC-62 = system: UACC-62
UO-31 = system: UO-31
NCI-H226 = system: NCI-H226
OVCAR-4 = system: OVCAR-4

COc1cc(O)cc2oc(-c3ccc(O)cc3)cc(=O)c12
GI50 (786-0): 68.4 µM (inactive) | GI50 (A498): 29.6 µM (inactive) | GI50 (A549): > 100 µM (inactive) | GI50 (ACHN): 64.7 µM (inactive) | GI50 (BT-549): 47.1 µM (inactive) | GI50 (CAKI-1): 64.3 µM (inactive) | GI50 (CCRF-CEM): > 100 µM (inactive) | GI50 (COLO 205): > 100 µM (inactive) | GI50 (DU-145): > 100 µM (inactive) | GI50 (EKVX): > 100 µM (inactive) | GI50 (HCT-116): 44.4 µM (inactive) | GI50 (HCT-15): > 100 µM | GI50 (HL-60): > 100 µM (inactive) | GI50 (HOP-62): 74.6 µM (inactive) | GI50 (HOP-92): 71.9 µM (inactive) | GI50 (HT-29): > 100 µM (inactive) | GI50 (Hs-578T): 57 µM (inactive) | GI50 (IGROV-1): 47.3 µM (inactive) | GI50 (K562): > 100 µM (inactive) | GI50 (KM12): > 100 µM (inactive) | GI50 (LOX IMVI): > 100 µM (inactive) | GI50 (M14): > 100 µM (inactive) | GI50 (MCF7): > 100 µM (inactive) | GI50 (MDA-MB-231): > 100 µM (inactive) | GI50 (MDA-MB-435): > 100 µM (inactive) | GI50 (MDA-N): > 100 µM (inactive) | GI50 (MOLT-4): > 100 µM (inactive) | GI50 (Malme-3M): 76.6 µM (inactive) | GI50 (NCI-H23): > 100 µM (inactive) | GI50 (NCI-H460): 67.5 µM (inactive) | GI50 (NCI-H522): 22.2 µM (inactive) | GI50 (NCI/ADR-RES): > 100 µM (inactive) | GI50 (OVCAR-3): > 100 µM (inactive) | GI50 (OVCAR-5): > 100 µM (inactive) | GI50 (OVCAR-8): 34.4 µM (inactive) | GI50 (PC-3): > 100 µM (inactive) | GI50 (RPMI-8226): 66.1 µM (inactive) | GI50 (RXF 393): 32.7 µM (inactive) | GI50 (SF-268): 67.8 µM (inactive) | GI50 (SF-295): 36.2 µM (inactive) | GI50 (SF-539): > 100 µM (inactive) | GI50 (SK-MEL-28): > 100 µM (inactive) | GI50 (SK-MEL-2): 52.8 µM (inactive) | GI50 (SK-MEL-5): > 100 µM (inactive) | GI50 (SK-OV-3): > 100 µM (inactive) | GI50 (SN12C): > 100 µM (inactive) | GI50 (SNB-19): > 100 µM (inactive) | GI50 (SNB-75): 14 µM (inactive) | GI50 (SR): 37.8 µM (inactive) | GI50 (SW-620): 49.3 µM (inactive) | GI50 (T47D): 50.4 µM (inactive) | GI50 (TK-10): > 100 µM (inactive) | GI50 (U-251): 71.4 µM (inactive) | GI50 (UACC-257): > 100 µM (inactive) | GI50 (UACC-62): 83.9 µM (inactive) | GI50 (UO-31): 55 µM (inactive)

O=C(N1CCOCC1)C1(c2ccccc2)CCNCC1
GI50 (786-0): > 100 µM (inactive) | GI50 (A498): > 100 µM (inactive) | GI50 (A549): > 100 µM (inactive) | GI50 (ACHN): > 100 µM (inactive) | GI50 (BT-549): > 100 µM (inactive) | GI50 (CAKI-1): > 100 µM (inactive) | GI50 (CCRF-CEM): 0.0488 µM (active) | GI50 (COLO 205): > 100 µM (inactive) | GI50 (DU-145): > 100 µM (inactive) | GI50 (EKVX): > 100 µM (inactive) | GI50 (HCT-116): > 100 µM (inactive) | GI50 (HCT-15): > 100 µM | GI50 (HOP-62): > 100 µM (inactive) | GI50 (HOP-92): > 100 µM (inactive) | GI50 (HT-29): > 100 µM (inactive) | GI50 (Hs-578T): > 100 µM (inactive) | GI50 (IGROV-1): > 100 µM (inactive) | GI50 (K562): > 100 µM (inactive) | GI50 (KM12): > 100 µM (inactive) | GI50 (LOX IMVI): > 100 µM (inactive) | GI50 (M14): > 100 µM (inactive) | GI50 (MCF7): > 100 µM (inactive) | GI50 (MDA-MB-231): > 100 µM (inactive) | GI50 (MDA-MB-435): > 100 µM (inactive) | GI50 (MDA-N): > 100 µM (inactive) | GI50 (MOLT-4): > 100 µM (inactive) | GI50 (Malme-3M): > 100 µM (inactive) | GI50 (NCI-H226): > 100 µM (inactive) | GI50 (NCI-H23): > 100 µM (inactive) | GI50 (NCI-H460): > 100 µM (inactive) | GI50 (NCI-H522): > 100 µM (inactive) | GI50 (NCI/ADR-RES): > 100 µM (inactive) | GI50 (OVCAR-3): > 100 µM (inactive) | GI50 (OVCAR-4): > 100 µM (inactive) | GI50 (OVCAR-5): > 100 µM (inactive) | GI50 (OVCAR-8): > 100 µM (inactive) | GI50 (PC-3): > 100 µM (inactive) | GI50 (RPMI-8226): > 100 µM (inactive) | GI50 (RXF 393): > 100 µM (inactive) | GI50 (SF-268): > 100 µM (inactive) | GI50 (SF-295): > 100 µM (inactive) | GI50 (SF-539): > 100 µM (inactive) | GI50 (SK-MEL-28): > 100 µM (inactive) | GI50 (SK-MEL-2): > 100 µM (inactive) | GI50 (SK-MEL-5): > 100 µM (inactive) | GI50 (SK-OV-3): > 100 µM (inactive) | GI50 (SN12C): > 100 µM (inactive) | GI50 (SNB-19): > 100 µM (inactive) | GI50 (SNB-75): > 100 µM (inactive) | GI50 (SR): > 100 µM (inactive) | GI50 (SW-620): > 100 µM (inactive) | GI50 (T47D): > 100 µM (inactive) | GI50 (TK-10): > 100 µM (inactive) | GI50 (U-251): > 100 µM (inactive) | GI50 (UACC-257): > 100 µM (inactive) | GI50 (UACC-62): > 100 µM (inactive) | GI50 (UO-31): > 100 µM (inactive)
